# Assay results from patent US8343475B2, “Small cationic antimicrobial peptides” (priority 2006, dated 2013).
# Residues, ends and D or L forms follow the SMILES beside them.
# Assays:
# [1] = tested on: IL8 release by human PBMC; assay: Chemokine induction in PBMC (capture ELISA); assay type: cell-based; details: 20 or 100 μg/ml peptide, 24 hours (FIG. 14)
# Description: FIG. 14. Induction of IL8 release by 7.5×10^5 human PBMC in response to treatment with 20 or 100 μg/ml of different peptides for 24 hours.
# (§1) Venous blood (20 ml) from healthy volunteers was collected in Vacutainer® collection tubes containing sodium heparin as an anticoagulant (Becton Dickinson, Mississauga, ON) in accordance with UBC ethical approval and guidelines. Blood was diluted 1:1 with complete RPMI 1640 medium and separated by centrifugation over a Ficoll-Paque® Plus (Amersham Biosciences, Piscataway, N.J., USA) density gradient. White blood cells were isolated from the buffy coat, washed twice in RPMI 1640 complete medium, and the number of peripheral blood mononuclear cells (PBMC) was determined by trypan blue exclusion. PBMC (5×10^5) were seeded into 12-well tissue culture dishes (Falcon; Becton Dickinson) at 0.75 to 1×10^6 cells/ml at 37° C. in 5% CO2. The above conditions were chosen to mimic conditions for circulating blood monocytes entering tissues at the site of infection via extravasation.
# (§2) Following incubation of the cells under various treatment regimens, the tissue culture supernatants were centrifuged at 1000×g for 5 min, then at 10,000×g for 2 min to obtain cell-free samples. Supernatants were aliquoted and then stored at −20° C. prior to assay for various chemokines by capture ELISA (eBioscience and BioSource International Inc., CA, USA respectively)
# [2] = tested on: Pseudomonas aeruginosa PAO1 strain H103; assay type: cell-based; details: PAO1
# In short: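 Modified broth microdilution MIC in Mueller Hinton medium, peptides diluted in 0.01% acetic acid/0.2% BSA, polypropylene plates. Inoculum 2-7×10^5 CFU/ml, overnight at 37 °C; MIC is the lowest concentration with no visible growth.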
# [3] = tested on: cord blood mononuclear cells (CBMC); assay: Adjuvant properties: cytokine/chemokine induction by peptides alone and with CpG oligonucleotides and polyphosphazene P6; assay type: cell-based, human; details: peptide alone 20 ug/mL, background subtracted
# Text: (§3) It is well accepted that vaccine immunization is best achieved by co-administration of an adjuvant. The precise mechanism by which these adjuvants work has eluded immunologists but appears to work in part by upregulating elements of innate immunity that smooth the transition to adaptive (antigen-specific) immunity (Bendelac A and R. Medzhitov. 2002. Adjuvants of immunity: Harnessing innate immunity to promote adaptive immunity J. Exp. Med. 195:F19-F23). Within this concept there are several possible avenues by which adjuvants might work including the attraction of immune cells into the site at which a particular antigen is injected, through e.g., upregulation of chemokines, the appropriate activation of cells when they reach that site, which can be caused by local cell or tissue damage releasing endogenous adjuvants or through specific cell activation by the adjuvants, and the compartmentalization of immune responses to the site of immunization (the so-called “depot” effect). […] Therefore we studies the ability of our small host defence peptides to upregulate adjuvant responses in both human PBMC and cord blood mononuclear cells (CBMC) (representing the responses of blood cells from neonates), both alone (Table 10 and 11) and in combination with other proposed adjuvant agents that might work through other mechanisms such as CpG oligodeoxy ribonucleotides (TLR9 agionists that activate cells through interaction with TLR9 and fit into 3 different classes A=molecule 2336, B=10103 and C=2395), and polyphosphazene P6 (which induces a depot effect).
# [4] = tested on: human PBMC; assay: as above; assay type: cell-based; details: peptide alone 20 ug/mL, background subtracted
# Description: as §1, §2, §3
compound,measurement,setting,value
"CC[C@H](C)[C@H](N)C(=O)N[C@@H](Cc1c[nH]c2ccccc12)C(=O)N[C@H](C(=O)N[C@H](C(=O)N[C@@H](Cc1c[nH]c2ccccc12)C(=O)N[C@@H](CCCNC(=N)N)C(=O)N[C@@H](CCCNC(=N)N)C(N)=O)[C@@H](C)CC)C(C)C [HH18, IWVIWRR-NH2] (H-IWVIWRR-NH2; N-terminus assumed)",induction of IL8,[1],strongest abilities to induce this chemokine
same,MIC P. aerug,[2],50 µg/mL
same,Cytokines induced: Gro-α,[3],55 pg/mL
same,Cytokines induced: IL-6,[3],7 pg/mL
same,Cytokines induced: IL-8,[3],372 pg/mL
same,Cytokines induced: MCP-1,[3],54 pg/mL
same,Cytokines induced: MCP-3,[3],-24 pg/mL
same,Cytokines induced: TNF-α,[3],-4 pg/mL
same,Cytokines induced: Gro-α,[4],143 pg/mL
same,Cytokines induced: IL-6,[4],180 pg/mL
same,Cytokines induced: IL-8,[4],2558 pg/mL
same,Cytokines induced: MCP-1,[4],64 pg/mL
same,Cytokines induced: MCP-3,[4],3 pg/mL
same,Cytokines induced: TNF-α,[4],56 pg/mL
